Structures can show the parent of a compound that is named as a salt.
system: acetylcholine-induced writhing in mice; test: acetylcholine writhing test, a primary screening test for analgesia; type: in vivo; conditions: Mus musculus, sc, 20 min; subcutaneous; mice dosed 20 minutes prior to acetylcholine 3.2 mg./kg. intraperitoneal; 2-minute observation; probit analysis
Procedure: All of the compounds of Formula I of the examples were tested and determined to be active in the acetylcholine writhing test, a primary screening test for analgesia. In this test the ability of test compounds to prevent acetylcholine-induced writhing in mice is determined. The following is an adaptation of the method of Collier and co-workers (Brit. J. Pharmacol. Chemother., 32, 295(1968)) by Anne K. Pierson. […] The mice are dosed with the test compound plus vehicle or vehicle alone (controls) 20 minutes prior to, and are observed for 2 minutes after, the acetylchloine injection. During the 2-minute observation period mice not responding by writhing are scored protected and mice responding by writhing one or more times are scored not protected. The mice are dosed orally (usually at 150-200 mg./kg.) or subcutaneously (usually at 75-100 mg./kg.). Fifteen mice per does level are used. ED50 values for active compounds are calculated by probit analysis (C. I. Bliss, The Statistics of Bioassay, Academic Press, New York, 1952) of quantal scores of tests at four or more appropriate dose levels. The following subcutaneous ED50 values for the compounds of Formula I of the examples were determined.

Structure (SMILES)	ED50 [mg/kg]
CCCCNc1ccc2c(c1)[C@@]1(C)CCN(CC3CC3)[C@@H](C2)[C@H]1C (relative stereo) [Example 11B, 8-(butylamino)-3-(cyclopropylmethyl)-1,2,3,4,5,6-hexahydro-cis-6,11-dimethyl-2,6-methano-3-benzazocine]	1
C[C@@H]1[C@@H]2Cc3ccc(N)cc3[C@@]1(C)CCN2CC1CC1 (relative stereo) [Example 1B, 8-amino-3-(cyclopropylmethyl)-1,2,3,4,5,6-hexahydro-cis-6,11-dimethyl-2,6-methano-3-benzazocine dihydrochloride]	0.8
CCNc1ccc2c(c1)[C@@]1(C)CCN(CC3CC3)[C@@H](C2)[C@H]1C (relative stereo) [Example 9B, 3-(cyclopropylmethyl)-8-(ethylamino)-1,2,3,4,5,6-hexahydro-cis-6,11-dimethyl-2,6-methano-3-benzazocine]	1.3
CCCN1CC[C@]2(C)c3cc(N)ccc3C[C@H]1[C@H]2C (relative stereo) [Example 6C, 8-amino-cis-6,11-dimethyl-1,2,3,4,5,6-hexahydro-3-propyl-2,6-methano-3-benzazocine dihydrochloride sesquihydrate]	5.6
CC(C)CN1CC[C@]2(C)c3cc(N)ccc3C[C@H]1[C@H]2C (relative stereo) [Example 5C, 8-amino-1,2,3,4,5,6-hexahydro-3-isobutyl-cis-6,11-dimethyl-2,6-methano-3-benzazocine dihydrochloride]	1.5
C[C@@H]1[C@@H]2Cc3ccc(N(C)C)cc3[C@@]1(C)CCN2CC1CC1 (relative stereo) [Example 4F, 3-cyclopropylmethyl-8-dimethylamino-cis-6,11-dimethyl-1,2,3,4,5,6-hexahydro-2,6-methano-3-benzazocine dihydrochloride]	0.79
C[C@@H]1[C@@H]2Cc3ccc(NCc4ccccc4)cc3[C@@]1(C)CCN2CC1CC1 (relative stereo) [Example 7, 3-(cyclopropylmethyl)-1,2,3,4,5,6-hexahydro-cis-6,11-dimethyl-8-benzylamino-2,6-methano-3-benzazocine dihydrochloride]	1.6
CCCNc1ccc2c(c1)[C@@]1(C)CCN(CC3CC3)[C@@H](C2)[C@H]1C (relative stereo) [Example 10B, 3-(cyclopropylmethyl)-1,2,3,4,5,6-hexahydro-cis-6,11-dimethyl-8-(propylamino)-2,6-methano-3-benzazocine]	1.2
CC[C@@H]1[C@@H]2Cc3ccc(N)cc3[C@@]1(CC)CCN2CC1CC1 (relative stereo) [Example 12H, 8-amino-3-(cyclopropylmethyl)-cis-6,11-diethyl-1,2,3,4,5,6-hexahydro-2,6-methano-3-benzazocine dihydrochloride]	1.3
C[C@@H]1[C@@H]2Cc3ccc(NCC4CC4)cc3[C@@]1(C)CCN2CC1CC1 (relative stereo) [Example 2E, 3-(cyclopropylmethyl)-8-(cyclopropylmethylamino)-1,2,3,4,5,6-hexahydro-cis-6,11-dimethyl-2,6-methano-3-benzazocine hydrochloride]	0.7
CNc1ccc2c(c1)[C@@]1(C)CCN(CC3CC3)[C@@H](C2)[C@H]1C (relative stereo) [Example 3B, 3-(cyclopropylmethyl)-1,2,3,4,5,6-hexahydro-cis-6,11-dimethyl-8-(methylamino)-2,6-methano-3-benzazocine dihydrochloride ethanolate hydrate]	0.44
C=CCN1CC[C@]2(C)c3cc(N)ccc3C[C@H]1[C@H]2C (relative stereo) [Example 8C, 8-amino-1,2,3,4,5,6-hexahydro-cis-6,11-dimethyl-3-(2-propenyl)-2,6-methano-3-benzazocine dihydrochloride]	2.5

Reference: patent US4032529A, “Aminomethanobenzazocine intermediates” (Sterling Drug Inc., priority 1975, dated 1977)
